The target in one assay is T1, PDGF-Ra (Homo sapiens, UniProt P16234).
T1 construct: host or cells: G-292 human osteosarcoma cells
The experiment in a line: Inhibitory activity against PDGF-Ra phosphorylation by PDGF-AA stimulation using G292. The assay is classed as cell-based. The note with it: for IC50: > means inhibition at indicated concentration not more than 50%, < and << not less than 50%, read-out: PDGF (E) IC50; for inhibition at 0.1 µM: G292, figure within parentheses in >100( ), at 100 nM, read-out: PDGF (E) inhibition (%) at 100 nM. The gist of the method: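 Human osteosarcoma G-292, 0.1% FBS o/n; cpd (DMSO) 1 h 37 °C; PDGF-AA 50 ng/ml 5 min; lyse 20 min RT; PY-20 capture 4 °C o/n; anti-PDGF-Ra + HRP-GAR; OD450.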

The target of another assay is T2, c-kit (Homo sapiens, UniProt P10721).
T2 construct: MO7e (human megakaryocytic leukemia cell line) which had been arrested for 20 hr; endogenous in cells; host or cells: MO7e human megakaryocytic leukemia cell line
T2 sequence (P10721 26-976): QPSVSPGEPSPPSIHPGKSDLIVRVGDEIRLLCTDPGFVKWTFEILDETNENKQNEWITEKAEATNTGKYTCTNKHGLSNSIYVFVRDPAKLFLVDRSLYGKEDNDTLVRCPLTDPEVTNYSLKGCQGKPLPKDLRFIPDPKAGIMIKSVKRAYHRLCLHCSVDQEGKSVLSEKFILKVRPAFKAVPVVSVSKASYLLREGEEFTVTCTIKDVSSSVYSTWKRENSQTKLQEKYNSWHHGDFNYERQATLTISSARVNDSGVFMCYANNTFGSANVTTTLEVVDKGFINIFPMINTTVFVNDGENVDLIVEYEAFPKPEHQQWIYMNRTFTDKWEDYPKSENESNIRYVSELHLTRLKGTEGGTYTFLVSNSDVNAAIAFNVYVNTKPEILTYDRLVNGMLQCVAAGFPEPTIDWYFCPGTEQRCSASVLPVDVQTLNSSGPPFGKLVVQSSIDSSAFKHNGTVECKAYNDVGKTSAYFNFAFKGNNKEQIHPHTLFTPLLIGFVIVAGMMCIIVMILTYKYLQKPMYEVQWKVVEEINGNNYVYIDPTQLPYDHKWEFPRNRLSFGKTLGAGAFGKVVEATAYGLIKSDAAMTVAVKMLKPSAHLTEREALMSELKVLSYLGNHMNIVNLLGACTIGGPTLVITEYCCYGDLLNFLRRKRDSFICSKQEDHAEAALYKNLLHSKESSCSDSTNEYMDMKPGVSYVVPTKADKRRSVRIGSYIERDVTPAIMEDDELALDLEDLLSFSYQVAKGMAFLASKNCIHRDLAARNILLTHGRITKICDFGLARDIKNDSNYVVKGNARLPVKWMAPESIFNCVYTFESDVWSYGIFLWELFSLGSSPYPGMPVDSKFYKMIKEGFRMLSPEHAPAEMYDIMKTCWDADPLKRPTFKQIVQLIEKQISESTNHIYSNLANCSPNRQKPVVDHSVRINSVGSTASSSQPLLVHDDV
The experiment in a line: Inhibitory activity against c-kit autophosphorylation (MO7e cells, h-SCF). The assay is classed as cell-based. As to conditions: for inhibition at 1 µM: Mo7e, figure within parentheses in −( ) or >1000( ), at 1000 nM; for IC50: MO7e cells, 50 ng/ml h-SCF, read-out: c-kit IC50. The gist of the method: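 MO7e human megakaryocytic leukemia cells, arrested 20 hr, treated with compound 1 hr, then stimulated with 50 ng/ml h-SCF for 5 min and lysed. Lysates captured on immobilized anti-phosphotyrosine antibody, detected with anti-c-kit primary and HRP secondary antibody; absorbance at 450 nm.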

Bounds are passed on as bounds.

T1 sequence (P16234 24-1089): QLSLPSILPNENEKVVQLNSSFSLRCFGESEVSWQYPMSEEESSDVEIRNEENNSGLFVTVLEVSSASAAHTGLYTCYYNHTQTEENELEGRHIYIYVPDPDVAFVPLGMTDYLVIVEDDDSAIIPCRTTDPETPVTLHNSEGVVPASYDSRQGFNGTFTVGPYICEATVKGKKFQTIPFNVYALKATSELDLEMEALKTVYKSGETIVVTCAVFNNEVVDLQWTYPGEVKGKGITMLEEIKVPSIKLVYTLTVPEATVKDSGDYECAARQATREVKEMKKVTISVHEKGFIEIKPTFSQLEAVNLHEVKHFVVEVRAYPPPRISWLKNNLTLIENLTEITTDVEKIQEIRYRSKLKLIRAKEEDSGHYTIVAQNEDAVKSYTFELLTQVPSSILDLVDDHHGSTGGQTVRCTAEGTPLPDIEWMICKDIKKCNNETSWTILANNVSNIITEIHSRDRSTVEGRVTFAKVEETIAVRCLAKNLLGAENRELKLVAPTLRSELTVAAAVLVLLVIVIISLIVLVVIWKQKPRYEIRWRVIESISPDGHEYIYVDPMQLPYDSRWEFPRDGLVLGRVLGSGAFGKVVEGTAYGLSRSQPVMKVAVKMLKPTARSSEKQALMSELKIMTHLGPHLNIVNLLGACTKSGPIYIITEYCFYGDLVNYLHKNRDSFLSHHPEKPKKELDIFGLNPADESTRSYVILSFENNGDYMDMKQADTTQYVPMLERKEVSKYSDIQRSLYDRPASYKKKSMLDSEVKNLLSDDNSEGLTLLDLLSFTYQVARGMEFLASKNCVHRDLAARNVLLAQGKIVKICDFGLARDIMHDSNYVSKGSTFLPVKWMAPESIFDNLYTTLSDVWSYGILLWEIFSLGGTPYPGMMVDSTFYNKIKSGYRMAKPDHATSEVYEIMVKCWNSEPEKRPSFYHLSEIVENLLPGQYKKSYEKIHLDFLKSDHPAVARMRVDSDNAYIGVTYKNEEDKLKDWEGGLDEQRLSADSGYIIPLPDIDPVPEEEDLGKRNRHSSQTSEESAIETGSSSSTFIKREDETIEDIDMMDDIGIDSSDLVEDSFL

Consider `COc1cc2nccc(Oc3cc(C)c(NC(=O)NCCN4CCCC4)cc3C)c2cc1OC` [Example 619, N-{4-[(6,7-Dimethoxy-4-quinolyl)oxy]-2,5-dimethylphenyl}-N′-(2-tetrahydro-1H-1-pyrrolylethyl)urea], for which, on PDGF-Ra, the IC50 is greater than 100 nM and the inhibition at 0.1 µM worked out at 49%. Moreover, the inhibition at 1 µM at c-kit is 44%.

`COc1cc2nccc(Oc3ccc(NC(=O)NCCN4CCCC4)c(C)c3C)c2cc1OC` [Example 620, N-{4-[(6,7-Dimethoxy-4-quinolyl)oxy]-2,3-dimethylphenyl}-N′-(2-tetrahydro-1H-1-pyrrolylethyl)urea]: the IC50 on PDGF-Ra is less than 10 nM; at c-kit, 519 nM.

Turning to `CCN(CC)CCNC(=O)Nc1cc(C)c(Oc2ccnc3cc(OC)c(OC)cc23)cc1C` [Example 623, N-[2-(Diethylamino)ethyl]-N′-{4-[(6,7-dimethoxy-4-quinolyl)oxy]-2,5-dimethylphenyl}urea], the concentration for half-maximal inhibition (IC50) on PDGF-Ra worked out at 90 nM; at c-kit, 632 nM.

For `CCN(CC)CCNC(=O)Nc1ccc(Oc2ccnc3cc(OC)c(OC)cc23)c(C)c1C` [Example 624, N-[2-(Diethylamino)ethyl]-N′-{4-[(6,7-dimethoxy-4-quinolyl)oxy]-2,3-dimethylphenyl}urea], the IC50 at PDGF-Ra amounted to 34 nM; at c-kit, 436 nM.

For `COc1cc2nccc(Oc3cc(C)c(NC(=O)NCCN(C)C)cc3C)c2cc1OC` [Example 625, N-{4-[(6,7-Dimethoxy-4-quinolyl)oxy]-2,5-dimethylphenyl}-N′-[2-(dimethylamino)ethyl]urea], at PDGF-Ra, the IC50 is greater than 100 nM and the inhibition at 0.1 µM is 31%. At c-kit, the IC50 came out at 596 nM.

As to `COc1cc2nccc(Oc3ccc(NC(=O)NCCN(C)C)c(C)c3C)c2cc1OC` [Example 626, N-{4-[(6,7-Dimethoxy-4-quinolyl)oxy]-2,3-dimethylphenyl}-N′-[2-(dimethylamino)ethyl]urea], the IC50 on PDGF-Ra was 49 nM; at c-kit, 339 nM.

With `COc1cc2ncnc(Oc3ccc(NC(=O)NCCN(C)C)cc3)c2cc1OC` [Example 627, N-{4-[(6,7-Dimethoxy-4-quinazolinyl)oxy]phenyl}-N′-[2-(dimethylamino)ethyl]urea], the IC50 at PDGF-Ra was found to be 65 nM; on c-kit, 774 nM.

On to `COc1cc2nccc(Oc3ccc(NC(=O)NCCN4CCOCC4)cc3)c2cc1OC` [Example 628, N-{4-[(6,7-Dimethoxy-4-quinolyl)oxy]phenyl}-N′-(2-morpholinoethyl)urea], for which the IC50 on PDGF-Ra was less than 10 nM; at c-kit it was 81 nM.

With `COc1cc2ncnc(Oc3ccc(NC(=O)NCCN4CCOCC4)cc3)c2cc1OC` [Example 629, N-{4-[(6,7-Dimethoxy-4-quinazolinyl)oxy]phenyl}-N′-(2-morpholinoethyl)urea], the figures for the IC50 on PDGF-Ra and at c-kit were less than 10 nM and 481 nM, respectively.

Take `CCN(CC)CCNC(=O)Nc1ccc(Oc2ncnc3cc(OC)c(OC)cc23)cc1OC` [Example 630, N-[2-(Diethylamino)ethyl]-N′-{4-[(6,7-dimethoxy-4-quinazolinyl)oxy]-2-methoxyphenyl}urea]: on PDGF-Ra, the IC50 worked out at 36 nM. At c-kit, the inhibition at 1 µM was found to be 23%.

On to `COc1cc(Oc2ncnc3cc(OC)c(OC)cc23)ccc1NC(=O)NCCN1CCOCC1` [Example 631, N-{4-[(6,7-Dimethoxy-4-quinazolinyl)oxy]-2-methoxyphenyl}-N′-(2-morpholinoethyl)urea], for which the IC50 on PDGF-Ra came to 39 nM; on c-kit it was 186 nM.

Take `COc1cc(Oc2ncnc3cc(OC)c(OC)cc23)ccc1NC(=O)NCCN1CCCC1` [Example 632, N-{4-[(6,7-Dimethoxy-4-quinazolinyl)oxy]-2-methoxyphenyl}-N′-(2-tetrahydro-1H-1-pyrrolylethyl)urea]: the IC50 at PDGF-Ra is 36 nM; on c-kit, 223 nM.

`COc1cc(Oc2ncnc3cc(OC)c(OC)cc23)ccc1NC(=O)NCCCN1CCN(C)CC1` [Example 633, N-{4-[(6,7-Dimethoxy-4-quinazolinyl)oxy]-2-methoxyphenyl}-N′-[3-(4-methylpiperazino)-propyl]urea]: at PDGF-Ra, the IC50 turned out to be 58 nM. Besides, the inhibition at 1 µM on c-kit was determined as 28%.

As to `COc1cc2nccc(Oc3cc(C)c(NC(=O)NC4CCN(Cc5ccccc5)CC4)cc3C)c2cc1OC` [Example 634, N-(1-Benzyl-4-piperidyl)-N′-{4-[(6,7-dimethoxy-4-quinolyl)oxy]-2,5-dimethylphenyl}urea], on PDGF-Ra, the IC50 is greater than 100 nM and the inhibition at 0.1 µM is 40%. Also, the inhibition at 1 µM at c-kit was 13%.

For `COc1cc2nccc(Oc3ccc(NC(=O)NC4CCN(Cc5ccccc5)CC4)c(C)c3C)c2cc1OC` [Example 635, N-(1-Benzyl-4-piperidyl)-N′-{4-[(6,7-dimethoxy-4-quinolyl)oxy]-2,3-dimethylphenyl}urea], on PDGF-Ra, the IC50 was greater than 100 nM and the inhibition at 0.1 µM is 25%. Further, the inhibition at 1 µM at c-kit amounted to 23%.

On to `COc1cc2ncnc(Oc3ccc(NC(=O)NC4CCN(Cc5ccccc5)CC4)cc3)c2cc1OC` [Example 636, N-(1-Benzyl-4-piperidyl)-N′-{4-[(6,7-dimethoxy-4-quinazolinyl)oxy]phenyl}urea], for which the half-maximal inhibitory concentration (IC50) at PDGF-Ra was 33 nM; on c-kit, 106 nM.

For the molecule `COc1cc2ncnc(Oc3ccc(NC(=O)NC4CCN(Cc5ccccc5)CC4)c(Cl)c3)c2cc1OC` [Example 637, N-(1-Benzyl-4-piperidyl)-N′-{2-chloro-4-[(6,7-dimethoxy-4-quinazolinyl)oxy]phenyl}urea], the figures for the concentration for half-maximal inhibition (IC50) at PDGF-Ra and at c-kit were 52 nM and 375 nM, respectively.

With `COc1cc2nccc(Oc3ccc(NC(=O)NC4CCN(Cc5ccccc5)CC4)c([N+](=O)[O-])c3)c2cc1OC` [Example 638, N-(1-Benzyl-4-piperidyl)-N′-{4-[(6,7-dimethoxy-4-quinolyl)oxy]-2-nitrophenyl}urea], at PDGF-Ra, the IC50 was greater than 100 nM and the inhibition at 0.1 µM turned out to be 43%. The inhibition at 1 µM at c-kit is 16%.

On to `COc1cc2nccc(Oc3ccc(NC(=O)NC4CCN(Cc5ccccc5)CC4)cc3F)c2cc1OC` [Example 639, N-(1-Benzyl-4-piperidyl)-N′-{4-[(6,7-dimethoxy-4-quinolyl)oxy]-3-fluorophenyl}urea], for which, on PDGF-Ra, the IC50 is greater than 100 nM and the inhibition at 0.1 µM was found to be 29%. Moreover, the inhibition at 1 µM at c-kit amounted to 12%.

On to `COc1cc2ncnc(Oc3ccc(NC(=O)NC4CCN(Cc5ccccc5)CC4)c([N+](=O)[O-])c3)c2cc1OC` [Example 640, N-(1-Benzyl-4-piperidyl)-N′-{4-[(6,7-dimethoxy-4-quinazolinyl)oxy]-2-nitrophenyl}urea], for which the IC50 on PDGF-Ra was 35 nM; on c-kit, 254 nM.

Regarding `COc1cc(Oc2ncnc3cc(OC)c(OC)cc23)ccc1NC(=O)NC1CCN(Cc2ccccc2)CC1` [Example 641, N-(1-Benzyl-4-piperidyl)-N′-{4-[(6,7-dimethoxy-4-quinazolinyl)oxy]-2-methoxyphenyl}urea], the half-inhibitory concentration (IC50) at PDGF-Ra was determined as 28 nM; on c-kit, 293 nM.

For the molecule `COc1cc2nccc(Oc3ccc(NC(=O)NC4CCN(Cc5ccccc5)CC4)cc3C)c2cc1OC` [Example 642, N-(1-Benzyl-4-piperidyl)-N′-{4-[(6,7-dimethoxy-4-quinolyl)oxy]-3-methylphenyl}urea], on PDGF-Ra, the IC50 is greater than 100 nM and the inhibition at 0.1 µM came to 20%. The inhibition at 1 µM at c-kit came out at 8%.

In the case of `COc1cc2nccc(Oc3ccc(NC(=O)NC4CCN(Cc5ccccc5)CC4)c(C)c3)c2cc1OC` [Example 643, N-(1-Benzyl-4-piperidyl)-N′-{4-[(6,7-dimethoxy-4-quinolyl)oxy]-2-methylphenyl}urea], on PDGF-Ra, the half-maximal inhibitory concentration (IC50) was greater than 100 nM and the inhibition at 0.1 µM was 40%. The inhibition at 1 µM at c-kit amounted to 2%.

As to `COc1cc2nccc(Oc3ccc(NC(=O)NC4CCN(Cc5ccccc5)CC4)cc3Cl)c2cc1OC` [Example 644, N-(1-Benzyl-4-piperidyl)-N′-{3-chloro-4-[(6,7-dimethoxy-4-quinolyl)oxy]phenyl}urea], at PDGF-Ra, the IC50 is greater than 100 nM and the inhibition at 0.1 µM amounted to 17%. Also, the inhibition at 1 µM on c-kit worked out at 14%.

On to `CCN(CC)CCNC(=O)Nc1ccc(Oc2ncnc3cc(OC)c(OC)cc23)cc1Cl` [Example 645, N-{2-Chloro-4-[(6,7-dimethoxy-4-quinazolinyl)oxy]phenyl}-N′-[2-(diethylamino)ethyl]urea], for which the IC50 at PDGF-Ra came out at 23 nM. For the same molecule, the inhibition at 1 µM at c-kit turned out to be 32%.

For `CCN(CC)CCNC(=O)Nc1ccc(Oc2ccnc3cc(OC)c(OC)cc23)cc1[N+](=O)[O-]` [Example 646, N-[2-(Diethylamino)ethyl]-N′-{4-[(6,7-dimethoxy-4-quinolyl)oxy]-2-nitrophenyl}urea], the half-inhibitory concentration (IC50) at PDGF-Ra was determined as 11 nM. Besides, the inhibition at 1 µM on c-kit stood at 0%.

Consider `CCN(CC)CCNC(=O)Nc1ccc(Oc2ccnc3cc(OC)c(OC)cc23)c(C)c1` [Example 648, N-[2-(Diethylamino)ethyl]-N′-{4-[(6,7-dimethoxy-4-quinolyl)oxy]-3-methylphenyl}urea], for which the IC50 turned out to be 16 nM on PDGF-Ra and 937 nM on c-kit.

Consider `CCN(CC)CCNC(=O)Nc1ccc(Oc2ccnc3cc(OC)c(OC)cc23)cc1Cl` [Example 650, N-{2-Chloro-4-[(6,7-dimethoxy-4-quinolyl)oxy]phenyl}-N′-[2-(diethylamino)ethyl]urea], for which the IC50 on PDGF-Ra came out at 32 nM; on c-kit it was 420 nM.

The values above are taken from patent publication US7135466B2 (Kirin Beer Kabushiki Kaisha, priority 1999, dated 2006).
